Experiments:
Rattus norvegicus [1] = species on record: Rattus norvegicus; test: Selectivity ratio for antagonist activity at alpha1D adrenergic receptor in Rattus norvegicus (rat) aorta to antagonist activity at alpha1A adrenergic receptor in vas deferens
[2] = molecular target: T1, Alpha-1B adrenergic receptor (Homo sapiens, UniProt P35368); test: Displacement of [3H]prazosin from Homo sapiens (human) alpha1B adrenergic receptor
T1 sequence (P35368 whole entry): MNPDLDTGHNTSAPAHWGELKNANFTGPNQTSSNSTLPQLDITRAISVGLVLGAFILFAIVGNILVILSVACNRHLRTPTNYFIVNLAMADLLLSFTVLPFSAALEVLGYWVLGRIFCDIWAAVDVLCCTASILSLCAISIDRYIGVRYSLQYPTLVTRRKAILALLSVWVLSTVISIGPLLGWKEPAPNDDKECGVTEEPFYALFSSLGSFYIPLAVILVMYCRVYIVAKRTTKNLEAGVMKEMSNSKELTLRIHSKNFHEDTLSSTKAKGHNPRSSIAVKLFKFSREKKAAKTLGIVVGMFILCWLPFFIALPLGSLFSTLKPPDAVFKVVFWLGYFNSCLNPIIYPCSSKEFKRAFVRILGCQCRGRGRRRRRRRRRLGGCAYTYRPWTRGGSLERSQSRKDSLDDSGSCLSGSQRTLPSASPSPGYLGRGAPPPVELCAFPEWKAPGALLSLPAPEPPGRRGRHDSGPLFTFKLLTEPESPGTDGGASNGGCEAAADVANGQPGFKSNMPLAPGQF

Rattus norvegicus [3] = species on record: Rattus norvegicus; test: Selectivity ratio for antagonist activity at alpha1B adrenergic receptor in Rattus norvegicus (rat) spleen to antagonist activity at alpha1D adrenergic receptor in aorta; type: tissue-based
[4] = molecular target: T2, Alpha-1B adrenergic receptor (Rattus norvegicus) (UniProt P15823); test: Noncompetitive antagonist activity at alpha1B adrenergic receptor in Rattus norvegicus (rat) spleen assessed as inhibition of (-)-phenylephrine-induced contraction
T2 sequence (whole entry): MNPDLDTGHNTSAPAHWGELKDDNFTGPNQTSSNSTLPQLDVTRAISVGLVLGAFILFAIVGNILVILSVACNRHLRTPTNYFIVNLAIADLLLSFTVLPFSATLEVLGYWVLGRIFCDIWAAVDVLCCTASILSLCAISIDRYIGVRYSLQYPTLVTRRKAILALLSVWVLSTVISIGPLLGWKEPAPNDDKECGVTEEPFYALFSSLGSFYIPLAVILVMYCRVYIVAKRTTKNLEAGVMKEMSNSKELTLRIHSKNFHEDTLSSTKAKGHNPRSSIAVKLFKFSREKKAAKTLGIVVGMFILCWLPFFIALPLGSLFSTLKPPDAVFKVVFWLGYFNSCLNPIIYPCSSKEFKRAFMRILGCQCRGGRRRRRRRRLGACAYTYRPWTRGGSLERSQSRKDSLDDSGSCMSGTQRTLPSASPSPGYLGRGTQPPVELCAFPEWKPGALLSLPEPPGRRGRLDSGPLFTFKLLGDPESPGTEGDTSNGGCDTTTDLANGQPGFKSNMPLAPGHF

[5] = molecular target: T3, Alpha-1A adrenergic receptor (Rattus norvegicus) (UniProt P43140); test: Noncompetitive antagonist activity at alpha1A adrenergic receptor in Rattus norvegicus (rat) vas deferens assessed as inhibition of (-)-noradrenaline-induced contraction
T3 sequence (whole entry): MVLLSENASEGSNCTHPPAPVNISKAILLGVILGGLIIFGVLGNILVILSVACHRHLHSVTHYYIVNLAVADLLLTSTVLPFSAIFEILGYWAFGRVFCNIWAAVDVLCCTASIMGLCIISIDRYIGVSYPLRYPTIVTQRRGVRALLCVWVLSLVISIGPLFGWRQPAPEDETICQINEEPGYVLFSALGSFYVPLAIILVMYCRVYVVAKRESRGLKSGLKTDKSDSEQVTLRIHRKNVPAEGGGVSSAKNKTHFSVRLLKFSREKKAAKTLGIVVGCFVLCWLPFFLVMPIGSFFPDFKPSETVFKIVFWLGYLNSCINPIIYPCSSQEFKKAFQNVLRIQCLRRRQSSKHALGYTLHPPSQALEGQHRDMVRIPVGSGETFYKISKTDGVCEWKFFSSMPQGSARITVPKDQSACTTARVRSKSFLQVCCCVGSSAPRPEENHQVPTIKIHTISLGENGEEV

[6] = molecular target: T4, Alpha-1D adrenergic receptor (Rattus norvegicus, UniProt P23944); test: Competitive antagonist activity at alpha1D adrenergic receptor in Rattus norvegicus (rat) aorta assessed as inhibition of (-)-noradrenaline-induced contraction; conditions: read-out: pA2 (converted)
T4 sequence (P23944 whole entry): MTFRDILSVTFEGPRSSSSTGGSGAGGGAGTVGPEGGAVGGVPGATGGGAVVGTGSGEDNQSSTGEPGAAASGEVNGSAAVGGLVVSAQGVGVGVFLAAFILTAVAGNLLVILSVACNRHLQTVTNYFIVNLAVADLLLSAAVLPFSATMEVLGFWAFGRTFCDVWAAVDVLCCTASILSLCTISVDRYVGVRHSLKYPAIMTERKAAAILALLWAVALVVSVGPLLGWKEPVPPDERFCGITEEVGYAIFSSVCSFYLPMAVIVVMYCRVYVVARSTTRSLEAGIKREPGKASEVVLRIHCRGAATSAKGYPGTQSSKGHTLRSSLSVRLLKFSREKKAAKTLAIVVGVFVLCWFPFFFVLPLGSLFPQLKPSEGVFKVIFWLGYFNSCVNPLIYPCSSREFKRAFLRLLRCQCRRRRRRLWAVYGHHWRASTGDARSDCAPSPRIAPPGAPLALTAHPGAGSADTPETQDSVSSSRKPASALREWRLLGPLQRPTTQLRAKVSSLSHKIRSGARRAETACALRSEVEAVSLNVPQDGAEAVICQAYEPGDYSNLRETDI

[7] = molecular target: T5, Alpha-1A adrenergic receptor (Homo sapiens, UniProt P35348); test: Displacement of [3H]prazosin from Homo sapiens (human) alpha1A adrenergic receptor
T5 sequence (P35348 whole entry): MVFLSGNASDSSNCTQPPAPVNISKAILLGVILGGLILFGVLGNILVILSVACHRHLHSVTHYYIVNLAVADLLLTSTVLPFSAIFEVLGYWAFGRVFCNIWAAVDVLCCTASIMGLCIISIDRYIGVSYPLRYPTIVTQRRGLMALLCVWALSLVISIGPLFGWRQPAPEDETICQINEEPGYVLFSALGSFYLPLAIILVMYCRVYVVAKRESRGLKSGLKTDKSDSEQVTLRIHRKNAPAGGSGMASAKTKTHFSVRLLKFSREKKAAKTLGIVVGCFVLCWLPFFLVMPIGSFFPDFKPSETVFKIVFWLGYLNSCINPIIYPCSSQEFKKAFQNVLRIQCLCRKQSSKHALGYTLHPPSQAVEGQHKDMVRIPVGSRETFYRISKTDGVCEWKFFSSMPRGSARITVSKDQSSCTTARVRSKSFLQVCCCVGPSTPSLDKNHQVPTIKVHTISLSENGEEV

Rattus norvegicus [8] = species on record: Rattus norvegicus; test: Selectivity ratio for antagonist activity at alpha1B adrenergic receptor in Rattus norvegicus (rat) spleen to antagonist activity at alpha1A adrenergic receptor in rat vas deferens; type: tissue-based
[9] = molecular target: T6, Alpha-1D adrenergic receptor (Homo sapiens, UniProt P25100); test: Displacement of [3H]prazosin from Homo sapiens (human) alpha1D adrenergic receptor
T6 sequence (P25100 whole entry): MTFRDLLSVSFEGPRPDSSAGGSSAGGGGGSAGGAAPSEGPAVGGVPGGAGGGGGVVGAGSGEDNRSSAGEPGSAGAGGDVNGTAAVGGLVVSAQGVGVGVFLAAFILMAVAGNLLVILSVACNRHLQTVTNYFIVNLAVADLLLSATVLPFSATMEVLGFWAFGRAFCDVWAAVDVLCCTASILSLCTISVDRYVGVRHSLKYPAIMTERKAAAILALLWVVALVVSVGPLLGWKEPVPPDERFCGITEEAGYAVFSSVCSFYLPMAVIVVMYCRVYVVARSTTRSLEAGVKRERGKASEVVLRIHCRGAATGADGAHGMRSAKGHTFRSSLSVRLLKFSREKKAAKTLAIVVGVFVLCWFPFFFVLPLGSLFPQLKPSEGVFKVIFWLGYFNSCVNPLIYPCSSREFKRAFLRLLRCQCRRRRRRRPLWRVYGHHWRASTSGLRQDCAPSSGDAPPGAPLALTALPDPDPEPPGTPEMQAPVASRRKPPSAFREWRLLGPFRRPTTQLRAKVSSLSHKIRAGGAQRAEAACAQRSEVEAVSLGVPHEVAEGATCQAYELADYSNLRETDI

[10] = molecular target: T7, Alpha-1A adrenergic receptor (Rattus norvegicus, UniProt P43140); test: Competitive antagonist activity at alpha1A adrenergic receptor in Rattus norvegicus (rat) vas deferens assessed as inhibition of (-)-noradrenaline-induced contraction; conditions: read-out: pA2 (converted)
T7 sequence (P43140 whole entry): T3 sequence (whole entry)

[11] = molecular target: T1, Alpha-1B adrenergic receptor; test: Binding affinity to alpha1B adrenoreceptor (unknown origin) by radioligand binding assay
[12] = molecular target: T7, Alpha-1A adrenergic receptor; test: Antagonist activity at alpha1A adrenoreceptor in Rattus norvegicus (rat) small mesenteric artery; conditions: read-out: pA2 (converted)

## COc1cc2nc(N3CCN(C(=O)c4ccc(C)o4)[C@H]4CCCC[C@@H]43)nc(N)c2cc1OC
Rattus norvegicus [1]
  Selectivity ratio: 2.3
[2]
  Ki: 0.871 nM
Rattus norvegicus [3]
  Selectivity ratio: 174
[4]
  pKb: 9.28
[5]
  pKb: 6.67
[6]
  Kb: 91.2 nM
[7]
  Ki: 23.4 nM
Rattus norvegicus [8]
  Selectivity ratio: 407
[9]
  Ki: 4.79 nM

## COc1cc2nc(N3CCN(C(=O)c4ccc(Br)o4)[C@H]4CCCC[C@@H]43)nc(N)c2cc1OC
Rattus norvegicus [1]
  Selectivity ratio: 0.5
[2]
  Ki: 0.309 nM
Rattus norvegicus [3]
  Selectivity ratio: 398
[4]
  pKb: 9.83
[5]
  pKb: 7.53
[6]
  Kb: 58.9 nM
[7]
  Ki: 3.47 nM
Rattus norvegicus [8]
  Selectivity ratio: 199
[9]
  Ki: 1.55 nM

## COc1cc2nc(N3CCN(C(=O)c4ccc(C(C)=O)o4)[C@H]4CCCC[C@@H]43)nc(N)c2cc1OC
Rattus norvegicus [1]
  Selectivity ratio: 0.2
[2]
  Ki: 1.38 nM
Rattus norvegicus [3]
  Selectivity ratio: 1510
[4]
  pKb: 9.85
[5]
  pKb: 7.37
[6]
  Kb: 214 nM
[7]
  Ki: 25.7 nM
Rattus norvegicus [8]
  Selectivity ratio: 302
[9]
  Ki: 7.41 nM

## COc1ccc(C(=O)N2CCN(c3nc(N)c4cc(OC)c(OC)cc4n3)[C@H]3CCCC[C@@H]32)o1
[10]
  Kb: 141 nM
Rattus norvegicus [1]
  Selectivity ratio: 1.6
[2]
  Ki: 0.871 nM
Rattus norvegicus [3]
  Selectivity ratio: 457
[4]
  pKb: 9.71
[6]
  Kb: 89.1 nM
[7]
  Ki: 27.5 nM
Rattus norvegicus [8]
  Selectivity ratio: 724
[9]
  Ki: 3.63 nM

## COc1cc2nc(N3CCN(C(=O)c4ccco4)[C@H]4CCCC[C@H]43)nc(N)c2cc1OC [(+)-CYCLAZOSIN]
[11]
  Ki: 0.692 nM
[12]
  Kb: 16.6 nM

— ChEMBL document CHEMBL3045834 (Med Chem Res, 2004)
